Laboratory results taken from ChEMBL document CHEMBL1201862, “PubChem BioAssay data set” (2004).
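Where inhibition never reached the appropriate level, the endpoint shown equals the highest concentration tested. Otherwise, values were interpolated linearly from a five-concentration, 48-hour dose response in 96-well plates. The concentration for 50% growth inhibition is given as GI50.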 Active and inactive are the calls of the source. No stated cut-off is given here; in the data, active = GI50 up to about 1.1 µM and inactive = higher.

Assays:
Assay in all cases: inhibition of tumour cell growth, NCI panel, 48 h
Hs-578T = system: Hs-578T
T47D = system: T47D
DLD-1 = system: DLD-1
HOP-18 = system: HOP-18
M19-MEL = system: M19-MEL
XF498 = system: XF498
DMS-114 = system: DMS-114
LXFL 529 = system: LXFL 529
RXF 631 = system: RXF 631

Compound: COC1OC(CO)C(O)C(OC(=O)c2cc(O)c(O)c(O)c2)C1OC(=O)c1cc(O)c(O)c(O)c1 (stereo not given)
- GI50 (Hs-578T): > 100 µM (inactive)

Compound: COc1ccc2c(c1)CCCN2S(=O)(=O)c1ccccc1[N+](=O)[O-]
- GI50 (Hs-578T): 43.7 µM (inactive)
- GI50 (T47D): 48.2 µM (inactive)

Compound: C(=N/NC1=NCCN1)/c1c2ccccc2c(/C=N\NC2=NCCN2)c2ccccc12
- GI50 (DLD-1): 2.83 µM (inactive)
- GI50 (HOP-18): 0.168 µM (active)
- GI50 (Hs-578T): 0.06 µM (active)
- GI50 (M19-MEL): 0.0757 µM (active)
- GI50 (T47D): 0.11 µM (active)
- GI50 (XF498): 0.0828 µM (active)

Compound: CCC/C(Cl)=N/OC(=O)Nc1cc(C(F)(F)F)ccc1OC
- GI50 (Hs-578T): 27.1 µM (inactive)
- GI50 (T47D): 6.44 µM (inactive)

Compound: COc1ccc(N2C(=O)C3c4[nH]c5ccccc5c4C4CCCCCCCC4C3C2=O)cc1 (stereo not given)
- GI50 (Hs-578T): > 10 µM (inactive)
- GI50 (T47D): > 10 µM (inactive)

Compound: CCCCN(CCCC)C(=O)C(=O)C(C(=O)c1ccc(OC)cc1)c1ccc(OC)cc1 (stereo not given)
- GI50 (DLD-1): > 100 µM (inactive)
- GI50 (DMS-114): 78.7 µM (inactive)
- GI50 (HOP-18): > 100 µM (inactive)
- GI50 (LXFL 529): > 100 µM (inactive)
- GI50 (RXF 631): > 100 µM (inactive)

Compound: c1ccc2c(c1)nc1n2CNCC1
- GI50 (Hs-578T): > 100 µM (inactive)
- GI50 (T47D): 37.2 µM (inactive)

Compound: Cc1cc(C#N)c(Nc2ccc(F)cc2[N+](=O)[O-])s1
- GI50 (T47D): > 100 µM (inactive)

Compound: COc1ccc(Sc2ccccc2[N+](=O)[O-])cc1
- GI50 (DLD-1): 24.8 µM (inactive)
- GI50 (HOP-18): > 100 µM (inactive)
- GI50 (LXFL 529): 27.5 µM (inactive)
- GI50 (M19-MEL): 7.23 µM (inactive)
- GI50 (RXF 631): 9.75 µM (inactive)

Compound: COC1/C=C/C(C)C(C(C)C(OC)C(C)CCC(=O)C(C)C(CCC(=O)O)OC)OC(=O)/C=C/C=C(\C)CC(OC)CC2=CC(=O)O[C@@H](C(C)C(OC)CC(OC)/C=C/C(C)C(OC)C1)[C@H]2O (stereo not given in full)
- GI50 (Hs-578T): 0.499 µM (active)
- GI50 (T47D): 2.56 µM (inactive)

Compound: CN1Cc2ccccc2C2(COc3ccccc3C2=O)C1 (stereo not given)
- GI50 (DLD-1): 92.9 µM (inactive)
- GI50 (DMS-114): > 100 µM (inactive)
- GI50 (HOP-18): > 100 µM (inactive)
- GI50 (LXFL 529): 76.6 µM (inactive)
- GI50 (M19-MEL): > 100 µM (inactive)

Compound: C[C@]12CC[C@H](O)CC1=CC[C@@H]1[C@@H]2CC[C@]2(C)NC(=O)/C(=C\c3ccccc3)C[C@@H]12
- GI50 (T47D): 12.3 µM (inactive)

Compound: COc1ccc2[nH]c3c(C)c4c(c(C)c3c2c1)CN(C)C=C4
- GI50 (DLD-1): 1.92 µM (inactive)
- GI50 (DMS-114): 0.398 µM (active)
- GI50 (HOP-18): 7.38 µM (inactive)
- GI50 (Hs-578T): 0.24 µM (active)
- GI50 (LXFL 529): 0.218 µM (active)
- GI50 (M19-MEL): 1.02 µM (active)
- GI50 (T47D): 2.07 µM (inactive)
- GI50 (XF498): 1.07 µM (active)

Compound: COC(=O)c1ccc2c(c1)CC1(C2)Cc2ccccc2C1=O (stereo not given)
- GI50 (Hs-578T): 69.7 µM (inactive)
- GI50 (T47D): 37.8 µM (inactive)

Compound: C[Si](C)(C)C1=C2C(=O)c3ccccc3C(=O)C2=C([Si](C)(C)C)[C@@H]2CCCC[C@H]12
- GI50 (T47D): > 100 µM (inactive)

Compound: c1ccc(C(=NCCC2CNc3ccccc32)c2ccccc2)cc1 (stereo not given)
- GI50 (Hs-578T): > 100 µM (inactive)

Compound: C/C(=N/NC(=S)Nc1ccccc1C)c1ccccn1
- GI50 (Hs-578T): 15.7 µM (inactive)
- GI50 (T47D): < 0.0475 µM (active)

Compound: CC(C)(C)C(=O)OCC1CCC(n2cnc3c(=O)[nH]c(N)nc32)O1 (stereo not given)
- GI50 (DMS-114): > 100 µM (inactive)
- GI50 (HOP-18): > 100 µM (inactive)
- GI50 (M19-MEL): > 100 µM (inactive)
- GI50 (XF498): > 100 µM (inactive)

Compound: CNc1ccc([N+](=O)[O-])cc1C(=O)N1CCC[C@H]1CO
- GI50 (Hs-578T): > 100 µM (inactive)
- GI50 (T47D): > 100 µM (inactive)

Compound: N#Cc1sc2c(c1O)c(=O)n(-c1ccccc1)c(=S)n2-c1ccccc1
- GI50 (Hs-578T): > 100 µM (inactive)
- GI50 (T47D): > 100 µM (inactive)

Compound: O=C(CCC(=O)Nc1ccc(Cl)c(Cl)c1)CC(=O)c1ccc2ccccc2c1
- GI50 (DLD-1): > 100 µM (inactive)
- GI50 (DMS-114): 86.5 µM (inactive)
- GI50 (HOP-18): > 100 µM (inactive)
- GI50 (LXFL 529): 42.7 µM (inactive)
- GI50 (M19-MEL): > 100 µM (inactive)
- GI50 (RXF 631): > 100 µM (inactive)

Compound: Cn1c(=O)oc2cc(C(=S)N3CCCCC3)ccc21
- GI50 (Hs-578T): > 100 µM (inactive)

Compound: CC1=C(Cl)C=CP(=O)(Oc2ccccc2)C1 (stereo not given)
- GI50 (DMS-114): 25.4 µM (inactive)
- GI50 (HOP-18): 23.1 µM (inactive)
- GI50 (LXFL 529): 15.3 µM (inactive)
- GI50 (XF498): 57.7 µM (inactive)

Compound: O=C1/C(=C\c2cccc(Oc3ccccc3)c2)S(=O)(=O)C(c2ccccc2)N1c1cc(Cl)ccc1Cl (stereo not given)
- GI50 (Hs-578T): 33.7 µM (inactive)
- GI50 (T47D): 20.3 µM (inactive)

Compound: Fc1cc(-c2cc(-c3ccccc3)no2)c(Cl)cc1Cl
- GI50 (Hs-578T): > 34.8 µM (inactive)
- GI50 (T47D): 14 µM (inactive)

Compound: O=Cc1cc2c(cc1-c1cc3c(cc1C=O)OCO3)OCO2
- GI50 (DLD-1): 50.4 µM (inactive)
- GI50 (DMS-114): > 100 µM (inactive)
- GI50 (HOP-18): > 100 µM (inactive)
- GI50 (LXFL 529): > 100 µM (inactive)
- GI50 (M19-MEL): 56.8 µM (inactive)

Compound: O=C(N/N=C\c1ccc([N+](=O)[O-])cc1)Nc1ccccc1
- GI50 (Hs-578T): > 100 µM (inactive)
- GI50 (T47D): > 100 µM (inactive)

Compound: CC(NC(CC12CC3CC(CC(C3)C1)C2)C(N)=O)c1ccccc1 (stereo not given)
- GI50 (T47D): 35.6 µM (inactive)

Compound: COc1ccc(C2(C3c4cc(OC)c(OC)cc4CCN3C)SCCCS2)cc1O (stereo not given)
- GI50 (Hs-578T): 23.7 µM (inactive)
- GI50 (T47D): > 100 µM (inactive)

Compound: Cc1cn(C2CC(O)C(Cn3nncc3Cn3cnc4c(N)ncnc43)O2)c(=O)[nH]c1=O (stereo not given)
- GI50 (Hs-578T): > 100 µM (inactive)
- GI50 (T47D): > 100 µM (inactive)

Compound: CN1CCC(CNC(=O)CCCCCCCCC(=O)NCC2(c3ccccc3)CCN(C)CC2)(c2ccccc2)CC1
- GI50 (Hs-578T): 84.1 µM (inactive)
- GI50 (T47D): 30.7 µM (inactive)
